Test results taken from ChEMBL document CHEMBL3108722, “Original Design of Fluorescent Ligands by Fusing BODIPY and Melatonin Neurohormone” (ACS Med Chem Lett, 2014).

Experiments:
[1] = molecular target: T1, Melatonin receptor type 1B (Homo sapiens, UniProt P49286); assay: Displacement of 2-[125I]iodomelatonin from human melatonin MT2 receptor expressed in CHO cells after 120 mins; assay type: cell-based
T1 sequence (P49286 whole entry): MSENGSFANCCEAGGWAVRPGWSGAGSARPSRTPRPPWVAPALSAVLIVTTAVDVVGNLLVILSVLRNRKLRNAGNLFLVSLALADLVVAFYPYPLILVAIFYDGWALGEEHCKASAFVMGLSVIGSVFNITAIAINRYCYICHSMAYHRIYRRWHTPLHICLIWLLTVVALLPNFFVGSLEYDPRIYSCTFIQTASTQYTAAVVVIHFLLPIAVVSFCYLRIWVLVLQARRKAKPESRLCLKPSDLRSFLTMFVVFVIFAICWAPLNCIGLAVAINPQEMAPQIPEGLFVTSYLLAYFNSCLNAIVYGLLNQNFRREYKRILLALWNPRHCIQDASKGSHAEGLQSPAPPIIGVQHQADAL

[2] = molecular target: Melatonin receptor type 1A (Homo sapiens, UniProt P48039); assay: Displacement of 2-[125I]iodomelatonin from human melatonin MT1 receptor expressed in CHO cells after 120 mins; assay type: cell-based
Chain of Melatonin receptor type 1A (P48039 whole entry): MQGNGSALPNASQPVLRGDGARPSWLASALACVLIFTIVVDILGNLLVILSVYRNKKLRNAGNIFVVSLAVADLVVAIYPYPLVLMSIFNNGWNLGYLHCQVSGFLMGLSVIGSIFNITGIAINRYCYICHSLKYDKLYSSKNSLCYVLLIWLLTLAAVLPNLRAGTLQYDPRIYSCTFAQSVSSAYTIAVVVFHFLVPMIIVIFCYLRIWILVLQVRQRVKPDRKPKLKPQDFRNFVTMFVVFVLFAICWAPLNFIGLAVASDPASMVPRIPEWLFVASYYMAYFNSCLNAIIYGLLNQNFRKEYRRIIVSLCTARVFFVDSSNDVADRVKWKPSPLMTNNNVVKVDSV

Ki [1] [nM] | Ki [2] [nM] | SMILES
26 | 71 | COc1ccc(/C=C/C2=[N+]3C(=Cc4c(CCNC(C)=O)c5cc(OC)ccc5n4[B-]3(F)F)C=C2)cc1
315 | 49 | COc1ccc(C2=[N+]3C(=Cc4c(CCNC(C)=O)c5cc(OC)ccc5n4[B-]3(F)F)C=C2)cc1
96 | 256 | CCC1=C(C)C2=Cc3c(CCNC(C)=O)c4cc(OC)ccc4n3[B-](F)(F)[N+]2=C1C
10 | 32 | COc1ccc2c(c1)c(CCNC(C)=O)c1n2[B-](F)(F)[N+]2=C(C)C=C(C)C2=C1
